In the series the test system is L929 mammalian fibroblasts. As to the kind of experiment: MEM (Minimum Essential Medium) USP elution in-vitro toxicity test. The series is classed as cell-based. The text has this:
In testing the toxicity of compounds of the compositions disclosed in solution, an MEM test procedure is used. The MEM (Minimum Essential Medium) test procedure is employed to evaluate cytoxicity using standard USP (The United States Pharmacopeial Convention) elution assays. A description of the test procedure is provided herein.
The assay provides a means of evaluating extracts of polymeric materials under direct contact conditions. This method is appropriate for high-density materials and for dose-response evaluations.
All reagents should be tissue culture grade or equivalent and should be reconstituted in accordance with manufacturer's instructions using aseptic technique.
Media Preparation: 1× MEM media is prepared by mixing 100 mL Eagle's MEM (with Earl's Salts and Sodium Bicarbonate, without L-glutamine), with 10 mL serum, 1 mL-glutamine solution, and 0.5 mL antibiotic solution (L-glutamine and antibiotic solutions are purchased at correct concentrations and stored frozen at −20° C.±2). Eagle's MEM is a sterile minimum essential medium and is available from Mediatech Celigro. Media may be stored up to 2 weeks at a temperature of 2° C.±2 after L-glutamine and antibiotics are added, or up to 1 month, if only serum is added. Preparation of 0.25% Trypsin: 10× Trypsin is placed in sterile 50 ml centrifuge tubes in 4 ml aliquots and stored frozen at −20° C.±2. Before use, a 4 ml aliquot of 10× trypsin is diluted 1:9 with 36 ml of Dulbecco's Phosphate Buffered Saline (PBS) to yield a 0.25% solution. Dulbecco's Saline is available from Mediatech Cellgro. Sterile 35 mm diameter petri dishes or 6 well tissue culture plates are used. Sterile serological pipets are employed in the procedure. Sterile absorbent material (e.g. Kay-Drys or similar material) is used. L929 mammalian fibroblasts (ATCC cell line CCL1, NCTC clone 929) are employed. […]
Exposure to Test Extracts: Exposure to test extracts is determined examining a representative prepared cell culture plate using the microscope to observe the cell monolayer for correct confluency. […]

`O.O.O.O.O.O.O=C([O-])c1ccccc1C(=O)O[O-].[Mg+2]` [magnesium perphthalate, magnesium monoperoxyphthalate hexahydrate]: the cells dead (concentrations below 0.5%) was 2-3%. Besides, the “MEM Test Result level” value (concentrations below 0.5%, generally) was 1 (Slight Not more than 20% of cells round and loosely attached—occasional lysed cells present). Also, the “toxicity level MEM” value (concentrations of 0.5% and above, with and without saline) was 4.

The values are drawn from US6939511B2, “Contact lens treating method and composition” (Novartis AG, priority 2000, dated 2005).
